System: A431 cells
Test: Protein synthesis ([3H]leucine incorporation) assay: inhibition of DAB389 EGF cytotoxicity by chloroquine
Details: for % of control Protein Synthesis, + Chloroquine: relative to chloroquine treatment alone

CCN(CC)CCCC(C)Nc1ccnc2cc(Cl)ccc12 (stereo not shown) [Chloroquine, chloroquine]
% of control Protein Synthesis, + Chloroquine (A431 cells, chloroquine 10 μM with DAB389 EGF 1 pm, 20 hr): 100% | % of control Protein Synthesis, + Chloroquine (A431 cells, chloroquine 10 μM with DAB389 EGF 10 pm, 20 hr): 61% | blocking of the cytotoxicity of DAB389 EGF (A431 cells, chloroquine 10 μM, 20 hr): completely blocked | inhibition at 10 µM (Homo sapiens, A-431, 20 h, read-out: reduction of protein synthesis by chloroquine treatment alone): 27%

— patent publication US5906820A, “Epidermal growth factor receptor targeted molecules for treatment of inflammatory arthritis” (priority 1997, dated 1999)
